# Measured values taken from US7563595B2 (University of South Florida, priority 2002, dated 2009).
# Experiments:
# α7-2-nAChRs = α7-2-nAChRs (Rattus norvegicus, UniProt Q05941, INS117GCQLHFDQDLQNMLLREACAQAGEDLRVS); assay: Two-electrode voltage-clamp of Xenopus oocytes injected with α7-2 cRNA
# α7-1-nAChRs = α7-1-nAChRs (Rattus norvegicus, UniProt Q05941); assay: Two-electrode voltage-clamp of Xenopus oocytes injected with α7-1 cRNA
# Type II α7-nAChRs = settings: cited from earlier work
substance,measurement,setting,value
α-bungarotoxin [αBgt],block by αBgt,α7-2-nAChRs,> 90%
same,effect on transient and sustained components of the ACh-evoked current,α7-2-nAChRs,abolished
same,inhibition of peak ACh-evoked current,α7-2-nAChRs,93±3%
same,reversal of αBgt inhibition after washout,α7-2-nAChRs,recovered to near control levels
same,time of toxin washout within which inhibition is reversed,α7-2-nAChRs,≤ 5 min
same,reversal of αBgt block after washout,α7-1-nAChRs,did not appreciably reverse
same,block by αBgt,Type II α7-nAChRs,> 90%
same,time of toxin washout within which inhibition is reversed,Type II α7-nAChRs,≤ 5 min
